Patent EP0585371B1, “AROMATIC OLIGOMERIC COMPOUNDS USEFUL AS MIMICS OF BIOACTIVE MACROMOLECULES” (RHONE-POULENC RORER INTERNATIONAL (HOLDINGS) INC., priority 1991, dated 1992)

Tested on: Vascular smooth muscle cells (VSMC)
Experiment: Smooth Muscle Cell DNA Synthesis Assay (3H-thymidine incorporation in response to PDGF)
Type: cell-based, swine
Settings: inhibition of incorporation of 3H-thymidine in response to PDGF (9 ng/ml)
Experimental: Vascular smooth muscle cells (VSMC) are isolated from swine coronaries obtained from swine hearts (Hatfield Meat Packing, Hatfield, PA) by enzyme dissociation as described by Gunther, et al., in J. Cell. Biol. 92, 289 (1982). Hyaluronidase (0.5 mg/ml) is added to facilitate dispersal. Cells are maintained in Earle's modified minimal essential medium (EMEM) with D-valine substituted for L-valine, supplemented with Hepes (10 mM), fetal bovine serum (FBS) (10%), penicillin (100 U/ml) and streptomycin ( 100 µg/ml).
The VSMC (passage 2) are plated at a density of 3 x 10^4 /cm2 (1x10^4 cells/well of 96 well tray) and after 48 hours of normal growth are arrested by replacement of above media with serum-free media for 48 hours consisting of: EMEM: Hams F12 (1:1), insulin, 5 µg/ml; transferrin, 35 µg/ml; selenite, 5 ng/ml; antibiotics and buffer (as above). The oligomer of the present invention to be tested (.01-10 µM) is added 2 hours prior to addition of porcine platelet derived growth factor (Research and Diagonostics, Minneapolis, MN), or FBS,in fresh serum-free media. Twenty-four hours later the oligomers are again added preceding addition of growth factors by 2 hours. […]
The VSMC are pulsed (5 hours) with ^3H-thymidine (Amersham, Arlington Heights, IL) (1 µCi/well of a 96 well plate; 42 Ci/mmole) added 15-18 hours after the last dose of growth factor. DNA synthesis is determined in NaOH extraction of ethanol/ether fixed cells as reported by Nemecek, et al., PNAS 83, 674 (1986). The cells are washed with phosphate bufferred saline (200 µl/well of 96-well tray. The cells are incubated with trichloroacetic acid (TCA) (10%, 200 ul) for 5 minutes to remove cytoplasmic label. After a rapid wash with cold 10% TCA, cells are fixed with ethanol/ether (2:1, 200 µl/well 5 min) and dried. The labeled DNA is extracted with 0.5 N NaOH (200 µl/well 30 min incubation, room temperature). The extracted DNA is neutralized (0.5 N HCI) and counted by liquid scintillation.
Statistical evaluation is as reported by Bilder, et al., Am. […] IC50 values are calculated by linear regression (RPL of RS1) from % inhibition of a minimum of 3 log fold dilutions of oligomers in the presence of PDGF (9 ng/ml) which give 70-80% of a maximal PDGF response. […] Percent inhibition is calculated by comparing the effect of PDGF alone (vehicle treated cultures + PDGF minus vehicle treated cultures without PDGF) to the effect of oligomers (oligomer + PDGF minus oligomer alone) and divided by the effect of PDGF times 100. i.e., = % inhibition = ((ΔVehicle + PDGF) - (Δoligomer + PDGF)/(Δvehicle + PDGF)) x 100.

Structure (SMILES): Cc1cc(O)c(Cc2cc(O)c(Cc3cc(O)c(Cc4cc(O)c(Cc5cc(O)c(Cc6cc(O)c(Cc7cc(O)c(Cc8cc(O)ccc8CCC(=O)O)cc7CCC(=O)O)cc6CCC(=O)O)cc5CCC(=O)O)cc4CCC(=O)O)cc3CCC(=O)O)cc2CCC(=O)O)cc1CCC(=O)O [Ex 4, 5-[4-[4-[4-[4-[4-[4-[[2-(2-carboxyethyl)-5-hydroxy]benzyl]-[2-(2-carboxyethyl)-5-hydroxy]benzyl]-[2-(2-carboxyethyl)-5-hydroxy]benzyl]-[2-(2-carboxyethyl)-5-hydroxy]benzyl]-[2-(2-carboxyethyl)-5-hydroxy]benzyl]-[2-(2-carboxyethyl)-5-hydroxy]benzyl]-[2-(2-carboxyethyl)-5-hydroxy]benzyl]-4-hydroxy-2-methylhydrocinnamic acid]
- IC50: 1.6 µM
